{"source": "patent US6794495B1", "about": "“Composition comprising extensin and, optionally, pectic polysaccharides” (New Nordic Danmark APS, priority 1998, dated 2004)", "test_system": "Tetrahymena thermophila cells", "assay": "Oligo-cell experiments: cloning efficiency in synthetic nutrient medium", "type": "cell-based", "text": "The invention was the result of a laboratory test program using in vivo cell signalling model. The application of a nutritionally complete synthetic (NCS) medium in an oligo-cell experimental research program in which cells demise (or eventually have a prolonged lag-phase) was used for gaining scientific information related to determining the effectiveness of pectins and pectin and extensin combinations as biochemical messengers. An additional control was supplemented with cephalin, that activates cells to multiplication. The effect of an activator added to the NCS medium is compared directly to the control that demises. Apparently, any compound or combination of compounds can be examined in light of the question whether it can activate a cell to survive and/or proliferate. From the beginning of the 1980's the effect of biochemical messengers has been examined with cells grown in an NCS medium free of proteins, lipids, and sugars. Signalling applies to unicellular and multicellular organisms, and the idea of NCS media is that a biochemical messenger can be tested for its biological effect on the cells to gain insight in cellular signalling mechanisms. Biochemical messengers are related to the four biological cornerstones of the eukaryotic cell: survival, proliferation, differentiation, and programmed cell death.\nIn oligo-cell experiments, different pectins and combinations of pectins and extensins were examined for their ability to activate Tetrahymena thermophila cells to survival and/or proliferation. The Tetrahymena cell has nutritional requirements similar to those of animals. They contain subcellular organelles such as mitochondria and peroxisomes, which are essential for the development of regulatory mechanisms in cellular metabolism. […]\nCloning efficiencies were determined from cell multiplications in a synthetic nutrient medium without and with supplements. […]", "data": [{"substance": "cephalin", "values": [{"measurement": "Cloning efficiencies", "setting": "50 mg/L in synthetic nutrient medium, experiments with cell multiplication after 30 hours / total experiments, about two cells in two mL, first experiment", "value": "15/15"}, {"measurement": "Cloning efficiencies", "setting": "50 mg/L in synthetic nutrient medium, experiments with cell multiplication after 30 hours / total experiments, about two cells in two mL, second experiment (sugar beet fiber)", "value": "15/15"}, {"measurement": "Cloning efficiencies", "setting": "controls supplemented with cephalin, evaluated after 30 hours", "value": 92, "unit": "%"}]}]}
